Reference: PubChem BioAssay (NCI)
Values joined by “and” are separate entries in the source; they are usually repeats but may differ in a detail not shown here. Equal entries are not always repeated.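 GI50: concentration for 50% inhibition of growth. TGI marks complete inhibition of growth.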

Experiments:
Assay in all cases: NCI tumour cell line growth inhibition, 384-well format
MCF7 breast = tested on: MCF7 breast
ACHN renal = tested on: ACHN renal
SNB-75 CNS = tested on: SNB-75 CNS
U251 glioblastoma = tested on: U251 glioblastoma
HS 578T breast = tested on: HS 578T breast
A549 NSCLC = tested on: A549 NSCLC
OVCAR-8 ovarian = tested on: OVCAR-8 ovarian
A498 renal = tested on: A498 renal
HT29 colon = tested on: HT29 colon
KM12 colon = tested on: KM12 colon
HOP-62 NSCLC = tested on: HOP-62 NSCLC
NCI-H23 lung = tested on: NCI-H23 lung
TK-10 renal = tested on: TK-10 renal
SK-OV-3 ovarian = tested on: SK-OV-3 ovarian
UACC-62 melanoma = tested on: UACC-62 melanoma
COLO 205 colon = tested on: COLO 205 colon
MDA-MB-435 melanoma = tested on: MDA-MB-435 melanoma
SNB-19 CNS = tested on: SNB-19 CNS
HCT-15 colon = tested on: HCT-15 colon
OVCAR-5 ovarian = tested on: OVCAR-5 ovarian
UO-31 renal = tested on: UO-31 renal
SK-MEL-2 melanoma = tested on: SK-MEL-2 melanoma
HOP-92 NSCLC = tested on: HOP-92 NSCLC
CAKI-1 renal = tested on: CAKI-1 renal
HL-60(TB) leukemia = tested on: HL-60(TB) leukemia
BT-549 breast = tested on: BT-549 breast
OVCAR-4 ovarian = tested on: OVCAR-4 ovarian
CCRF-CEM leukemia = tested on: CCRF-CEM leukemia
NCI/ADR-RES ovarian = tested on: NCI/ADR-RES ovarian
HCC-2998 colon = tested on: HCC-2998 colon

O=S(=O)(NCCNC/C=C/c1ccc(Br)cc1)c1cccc2cnccc12 was tested, and the GI50 (MCF7 breast) was 3.15 µM and 5.52 µM, the TGI (MCF7 breast) was 18.8 µM and 18.2 µM and the GI50 (ACHN renal) was 11.7 µM and 13.5 µM. The TGI (ACHN renal) was 24 µM and 26.4 µM, the GI50 (SNB-75 CNS) was 10.3 µM and 10.8 µM and the TGI (SNB-75 CNS) was 22 µM and 22.7 µM. For the same compound, the GI50 (U251 glioblastoma) was 12.3 µM and 12.5 µM, the TGI (U251 glioblastoma) was 24.9 µM and 25.2 µM and the GI50 (HS 578T breast) was 4.89 µM and 8.58 µM. For the same compound, the TGI (HS 578T breast) was 16.5 µM and 20.7 µM, the GI50 (A549 NSCLC) was 14 µM and the TGI (A549 NSCLC) was 27.1 µM. For the same compound, the GI50 (OVCAR-8 ovarian) was 12.2 µM and 11.8 µM, the TGI (OVCAR-8 ovarian) was 24.7 µM and 24.2 µM and the GI50 (A498 renal) was 5.06 µM and 10.3 µM. For the same compound, the TGI (A498 renal) was 19.6 µM and 22.1 µM, the GI50 (HT29 colon) was 3.17 µM and 4.08 µM and the TGI (HT29 colon) was 9.44 µM and 13.5 µM. For the same compound, the GI50 (KM12 colon) was 4.08 µM and 6.28 µM, the TGI (KM12 colon) was 19 µM and 18.3 µM and the GI50 (HOP-62 NSCLC) was 11.8 µM and 14.2 µM. For the same compound, the TGI (HOP-62 NSCLC) was 24.2 µM and 27.3 µM, the GI50 (NCI-H23 lung) was 6.06 µM and 10 µM and the TGI (NCI-H23 lung) was 20.3 µM and 21.6 µM. The GI50 (TK-10 renal) was 10.4 µM and 11.3 µM, the TGI (TK-10 renal) was 22.2 µM and 23.5 µM and the GI50 (SK-OV-3 ovarian) was 10.4 µM and 10.9 µM. The TGI (SK-OV-3 ovarian) was 22.2 µM and 22.9 µM, the GI50 (UACC-62 melanoma) was 0.814 µM and 3.2 µM and the TGI (UACC-62 melanoma) was 6.43 µM and 10.8 µM. The TGI (COLO 205 colon) was 2.6 µM and 16.1 µM, the GI50 (MDA-MB-435 melanoma) was 13 µM and 13.2 µM and the TGI (MDA-MB-435 melanoma) was 25.7 µM and 26 µM. For the same compound, the GI50 (SNB-19 CNS) was 17 µM and 16.1 µM, the TGI (SNB-19 CNS) was 30.8 µM and 29.7 µM and the GI50 (HCT-15 colon) was 13.2 µM and 10.1 µM. For the same compound, the TGI (HCT-15 colon) was 26.1 µM and 21.9 µM, the GI50 (OVCAR-5 ovarian) was 12.7 µM and the TGI (OVCAR-5 ovarian) was 25.4 µM. The GI50 (UO-31 renal) was 12.5 µM and 13.1 µM, the TGI (UO-31 renal) was 25.1 µM and 26 µM and the GI50 (SK-MEL-2 melanoma) was 2.74 µM. The TGI (SK-MEL-2 melanoma) was 6.86 µM, the GI50 (HOP-92 NSCLC) was 10.7 µM and 10.8 µM and the TGI (HOP-92 NSCLC) was 22.6 µM and 22.7 µM. The GI50 (CAKI-1 renal) was 7.31 µM and 7.09 µM, the TGI (CAKI-1 renal) was 20.1 µM and 19.8 µM and the GI50 (HL-60(TB) leukemia) was 1.21 µM and 3.62 µM. For the same compound, the TGI (HL-60(TB) leukemia) was 10.8 µM and 12.6 µM, the GI50 (BT-549 breast) was 3.57 µM and 6.51 µM and the TGI (BT-549 breast) was 11.8 µM and 19.2 µM. For the same compound, the GI50 (OVCAR-4 ovarian) was 12.8 µM and 13.8 µM, the TGI (OVCAR-4 ovarian) was 25.5 µM and 26.8 µM and the GI50 (CCRF-CEM leukemia) was 3.81 µM and 5.3 µM. The TGI (CCRF-CEM leukemia) was 11.4 µM and 16.8 µM, the GI50 (NCI/ADR-RES ovarian) was 13.2 µM and 14.6 µM and the TGI (NCI/ADR-RES ovarian) was 26.1 µM and 27.9 µM. For the same compound, the GI50 (HCC-2998 colon) was 2.15 µM and 2.09 µM and the TGI (HCC-2998 colon) was 3.82 µM and 3.91 µM.
